The nature of this data set: physchem. In a few lines: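 Solubility at pH 7.4 determined by stepwise addition of 200 mM phosphate buffer in 100 μL increments to 3 mg peptide, mixing briefly each time, until no insoluble material remained, then measured by liquid chromatography.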
The mark [1] stands for this setting: pH 7.4, aqueous buffer, pH 7.4 Phosphate Buffer - Solubility, 200 mM Phosphate buffer pH 7.4.
[2] abbreviates: pH 7.4, solubility in phosphate buffer at pH 7.4, 200 mM phosphate buffer pH 7.4.

SMILES strings stand for the structures. Starred links: 1 amine or outer side, 2 acyl side, 3 side chain; linkers in the order of their positions; H or OH if unused. Positions of bridges follow the written chain, without caps; N, C: chain ends. Non-standard residues stand in square brackets, D forms with d. Residues, ends and D or L forms follow the SMILES beside them. Groups on a side chain read outwards from the residue. Chains are numbered I, II in the order given. *: point of attachment. C18 diacid = O=C(O)CCCCCCCCCCCCCCCCC(=O)*; C17 diacid = O=C(O)CCCCCCCCCCCCCCCC(=O)*; γGlu = O=C(O)[C@H](CCC(=O)[*:2])N[*:1]; NMeY = CN[C@@H](Cc1ccc(O)cc1)C(=O)O; AEEA = NCCOCCOCC(=O)O; Aib = CC(C)(N)C(=O)O Where only a bound is given, the exact number is not on record here.

`CC[C@H](C)[C@H](NC(=O)[C@H](CO)NC(=O)[C@H](Cc1ccc(O)cc1)NC(=O)[C@H](CC(=O)O)NC(=O)[C@H](CO)NC(=O)[C@@H](NC(=O)[C@H](Cc1ccccc1)NC(=O)[C@@H](NC(=O)CNC(=O)[C@H](CCC(=O)O)NC(=O)C(C)(C)NC(=O)[C@H](Cc1ccc(O)cc1)NC)[C@@H](C)O)[C@@H](C)CC)C(=O)N[C@@H](C)C(=O)N[C@@H](CC(C)C)C(=O)N[C@@H](CC(=O)O)C(=O)N[C@@H](CCCNC(=N)N)C(=O)NC(C)(C)C(=O)N[C@@H](C)C(=O)N[C@@H](CCC(N)=O)C(=O)NC(C)(C)C(=O)N[C@@H](CCCCNC(=O)COCCOCCNC(=O)COCCOCCNC(=O)CC[C@H](NC(=O)CC[C@H](NC(=O)CCCCCCCCCCCCCCCCC(=O)O)C(=O)O)C(=O)O)C(=O)N[C@@H](Cc1ccccc1)C(=O)N[C@H](C(=O)N[C@@H](CC(N)=O)C(=O)N[C@@H](Cc1c[nH]c2ccccc12)C(=O)N[C@@H](CC(C)C)C(=O)N[C@@H](CC(C)C)C(=O)N[C@@H](C)C(=O)N[C@@H](CCC(N)=O)C(=O)N[C@@H](CCCNC(=N)N)C(N)=O)C(C)C` [Compound 269] (H-[NMeY][Aib]EGTFISDYSIALDR[Aib]AQ[Aib]K([AEEA-AEEA-γGlu-γGlu-C18 diacid])FVNWLLAQR-NH2) displayed a solubility (pH 7.4, aqueous buffer) of at least 7.5 mg/mL.
With `CC[C@H](C)[C@H](NC(=O)[C@H](CO)NC(=O)[C@H](Cc1ccc(O)cc1)NC(=O)[C@H](CC(=O)O)NC(=O)[C@H](CO)NC(=O)[C@@H](NC(=O)[C@H](Cc1ccccc1)NC(=O)[C@@H](NC(=O)CNC(=O)[C@H](CCC(=O)O)NC(=O)C(C)(C)NC(=O)[C@@H](N)Cc1ccc(O)cc1)[C@@H](C)O)[C@@H](C)CC)C(=O)N[C@@H](C)C(=O)N[C@@H](CC(C)C)C(=O)N[C@@H](CC(=O)O)C(=O)N[C@@H](CCCCN)C(=O)NC(C)(C)C(=O)N[C@@H](C)C(=O)N[C@@H](CCC(N)=O)C(=O)N[C@@H](C)C(=O)N[C@@H](CCCCNC(=O)COCCOCCNC(=O)COCCOCCNC(=O)CC[C@H](NC(=O)CC[C@H](NC(=O)CCCCCCCCCCCCCCCCC(=O)O)C(=O)O)C(=O)O)C(=O)N[C@@H](Cc1ccccc1)C(=O)N[C@H](C(=O)N[C@@H](CCC(=O)O)C(=O)N[C@@H](Cc1c[nH]c2ccccc12)C(=O)N[C@@H](CC(C)C)C(=O)N[C@@H](CC(C)C)C(=O)N[C@@H](C)C(=O)N[C@@H](CCC(N)=O)C(=O)N[C@@H](CCCNC(=N)N)C(=O)NCC(=O)O)C(C)C` [Compound 155] (H-Y[Aib]EGTFISDYSIALDK[Aib]AQAK([AEEA-AEEA-γGlu-γGlu-C18 diacid])FVEWLLAQRG-OH), the solubility was at least 15 mg/mL (pH 7.4) and at least 30 mg/mL (pH 7.4, aqueous buffer).
In the same order, the values of `CC[C@H](C)[C@H](NC(=O)[C@H](CO)NC(=O)[C@H](Cc1ccc(O)cc1)NC(=O)[C@H](CC(=O)O)NC(=O)[C@H](CO)NC(=O)[C@@H](NC(=O)[C@H](Cc1ccccc1)NC(=O)[C@@H](NC(=O)CNC(=O)[C@H](CCC(=O)O)NC(=O)C(C)(C)NC(=O)[C@H](Cc1ccc(O)cc1)NC)[C@@H](C)O)[C@@H](C)CC)C(=O)N[C@@H](C)C(=O)N[C@@H](CC(C)C)C(=O)N[C@@H](CC(=O)O)C(=O)N[C@@H](CCCNC(=N)N)C(=O)NC(C)(C)C(=O)N[C@@H](C)C(=O)N[C@@H](CCC(N)=O)C(=O)NC(C)(C)C(=O)N[C@@H](CCCCNC(=O)CNC(=O)CNC(=O)[C@@H]1CCCN1C(=O)[C@H](C)NC(=O)[C@@H]1CCCN1C(=O)[C@H](C)NC(=O)[C@@H]1CCCN1C(=O)CC[C@H](NC(=O)CCCCCCCCCCCCCCCCC(=O)O)C(=O)O)C(=O)N[C@@H](Cc1ccccc1)C(=O)N[C@H](C(=O)N[C@@H](CC(N)=O)C(=O)N[C@@H](Cc1c[nH]c2ccccc12)C(=O)N[C@@H](CC(C)C)C(=O)N[C@@H](CC(C)C)C(=O)N[C@@H](C)C(=O)N[C@@H](CCC(N)=O)C(=O)N[C@@H](CO)C(=O)N1CCC[C@H]1C(=O)NCC(=O)O)C(C)C` [Compound 117] (I: H-[NMeY][Aib]EGTFISDYSIALDR[Aib]AQ[Aib]KFVNWLLAQSPG-OH / II: {C18 diacid-γGlu}-PAPAPGG; amide I:21-II:C) are at least 15 mg/mL and at least 30 mg/mL.
`CC[C@H](C)[C@H](NC(=O)[C@H](CO)NC(=O)[C@H](Cc1ccc(O)cc1)NC(=O)[C@H](CC(C)C)NC(=O)[C@H](CO)NC(=O)[C@@H](NC(=O)[C@H](Cc1ccccc1)NC(=O)[C@@H](NC(=O)CNC(=O)[C@H](CCC(=O)O)NC(=O)C(C)(C)NC(=O)[C@H](Cc1ccc(O)cc1)NC)[C@@H](C)O)[C@@H](C)CC)C(=O)N[C@@H](C)C(=O)N[C@@H](CC(C)C)C(=O)N[C@@H](CC(=O)O)C(=O)N[C@@H](CCCNC(=N)N)C(=O)N[C@@H](CCCCNC(=O)CNC(=O)CNC(=O)CNC(=O)CNC(=O)CNC(=O)CNC(=O)CCCCCCCCCCCCCCCCC(=O)O)C(=O)N[C@@H](Cc1c[nH]cn1)C(=O)N[C@@H](CCC(N)=O)C(=O)NC(C)(C)C(=O)N[C@@H](CC(N)=O)C(=O)N[C@@H](Cc1ccccc1)C(=O)N[C@H](C(=O)N[C@@H](CC(N)=O)C(=O)N[C@@H](Cc1c[nH]c2ccccc12)C(=O)N[C@@H](CC(C)C)C(=O)N[C@@H](CC(C)C)C(=O)N[C@@H](C)C(=O)N[C@@H](CCC(N)=O)C(=O)N[C@@H](CCCNC(=N)N)C(=O)N1CCC[C@H]1C(=O)N[C@@H](CO)C(=O)N[C@@H](CO)C(=O)NCC(=O)N[C@@H](C)C(=O)N1CCC[C@H]1C(=O)N1CCC[C@H]1C(=O)N1CCC[C@H]1C(=O)N[C@@H](CO)C(=O)N[C@@H](CCCNC(=N)N)C(N)=O)C(C)C` [Compound 277] gave a solubility (phosphate buffer, pH 7.4, aqueous buffer) of under 15 mg/mL.
Consider `CC[C@H](C)[C@H](NC(=O)[C@H](CO)NC(=O)[C@H](Cc1ccc(O)cc1)NC(=O)[C@H](CC(=O)O)NC(=O)[C@H](CO)NC(=O)[C@@H](NC(=O)[C@H](Cc1ccccc1)NC(=O)[C@@H](NC(=O)CNC(=O)[C@H](CCC(=O)O)NC(=O)C(C)(C)NC(=O)[C@H](Cc1ccc(O)cc1)NC)[C@@H](C)O)[C@@H](C)CC)C(=O)N[C@@H](C)C(=O)N[C@@H](CC(C)C)C(=O)N[C@@H](CC(=O)O)C(=O)N[C@@H](CCCNC(=N)N)C(=O)NC(C)(C)C(=O)N[C@@H](C)C(=O)N[C@@H](CCC(N)=O)C(=O)NC(C)(C)C(=O)N[C@@H](CCCCNC(=O)COCCOCCNC(=O)COCCOCCNC(=O)CC[C@H](NC(=O)CC[C@H](NC(=O)CCCCCCCCCCCCCCCCC(=O)O)C(=O)O)C(=O)O)C(=O)N[C@@H](Cc1ccccc1)C(=O)N[C@H](C(=O)N[C@@H](CC(N)=O)C(=O)N[C@@H](Cc1c[nH]c2ccccc12)C(=O)N[C@@H](CC(C)C)C(=O)N[C@@H](CC(C)C)C(=O)N[C@@H](C)C(=O)N[C@@H](CCC(N)=O)C(=O)N[C@@H](CCCNC(=N)N)C(=O)N1CCC[C@H]1C(=O)N[C@@H](CO)C(=O)N[C@@H](CO)C(=O)NCC(=O)N[C@@H](C)C(=O)N1CCC[C@H]1C(=O)N1CCC[C@H]1C(=O)N1CCC[C@H]1C(=O)N[C@@H](CO)C(N)=O)C(C)C` [Compound 35] (H-[NMeY][Aib]EGTFISDYSIALDR[Aib]AQ[Aib]K([AEEA-AEEA-γGlu-γGlu-C18 diacid])FVNWLLAQRPSSGAPPPS-NH2), for which the solubility was at least 30 mg/mL under setting [1] and at least 15 mg/mL under setting [2].
In the same order, the values of `CC[C@H](C)[C@H](NC(=O)[C@H](Cc1ccccc1)NC(=O)[C@@H](NC(=O)CNC(=O)[C@H](CCC(=O)O)NC(=O)C(C)(C)NC(=O)[C@H](Cc1ccc(O)cc1)NC)[C@@H](C)O)C(=O)N[C@@H](CO)C(=O)N[C@@H](CC(=O)O)C(=O)N[C@@H](Cc1ccc(O)cc1)C(=O)N[C@@H](CO)C(=O)N[C@H](C(=O)NC(C)(C)C(=O)N[C@@H](CCCCNC(=O)COCCOCCNC(=O)COCCOCCNC(=O)CC[C@H](NC(=O)CC[C@H](NC(=O)CCCCCCCCCCCCCCCC(=O)O)C(=O)O)C(=O)O)C(=O)N[C@@H](CC(=O)O)C(=O)N[C@@H](CCCNC(=N)N)C(=O)NC(C)(C)C(=O)N[C@@H](C)C(=O)N[C@@H](CCC(N)=O)C(=O)NC(C)(C)C(=O)N[C@@H](CC(N)=O)C(=O)N[C@@H](Cc1ccccc1)C(=O)N[C@H](C(=O)N[C@@H](CC(N)=O)C(=O)N[C@@H](Cc1c[nH]c2ccccc12)C(=O)N[C@@H](CC(C)C)C(=O)N[C@@H](CC(C)C)C(=O)N[C@@H](C)C(=O)N[C@@H](CCC(N)=O)C(=O)N[C@@H](CO)C(=O)N1CCC[C@H]1C(=O)N[C@@H](CO)C(=O)N[C@@H](CO)C(=O)NCC(=O)N[C@@H](C)C(=O)N1CCC[C@H]1C(=O)N1CCC[C@H]1C(=O)N1CCC[C@H]1C(=O)N[C@@H](CO)C(N)=O)C(C)C)[C@@H](C)CC` [Compound 29] (H-[NMeY][Aib]EGTFISDYSI[Aib]K([AEEA-AEEA-γGlu-γGlu-C17 diacid])DR[Aib]AQ[Aib]NFVNWLLAQSPSSGAPPPS-NH2) are at least 30 mg/mL and at least 15 mg/mL.
Turning to `CC[C@H](C)[C@H](NC(=O)[C@H](CO)NC(=O)[C@H](Cc1ccc(O)cc1)NC(=O)[C@H](CC(=O)O)NC(=O)[C@H](CO)NC(=O)[C@@H](NC(=O)[C@H](Cc1ccccc1)NC(=O)[C@@H](NC(=O)CNC(=O)[C@H](CCC(=O)O)NC(=O)C(C)(C)NC(=O)[C@H](Cc1ccc(O)cc1)NC(C)=O)[C@@H](C)O)[C@@H](C)CC)C(=O)N[C@@H](C)C(=O)N[C@@H](CC(C)C)C(=O)N[C@@H](CC(=O)O)C(=O)N[C@@H](CCCNC(=N)N)C(=O)N[C@H](C(=O)N[C@@H](Cc1c[nH]cn1)C(=O)N[C@@H](CCC(N)=O)C(=O)N[C@@H](CCC(N)=O)C(=O)N[C@@H](CC(N)=O)C(=O)N[C@@H](Cc1ccccc1)C(=O)N[C@H](C(=O)N[C@@H](CC(N)=O)C(=O)N[C@@H](Cc1c[nH]c2ccccc12)C(=O)N[C@@H](CC(C)C)C(=O)N[C@@H](CC(C)C)C(=O)N[C@@H](C)C(=O)N[C@@H](CCC(N)=O)C(=O)N[C@@H](CCCCNC(=O)COCCOCCNC(=O)COCCOCCNC(=O)CC[C@H](NC(=O)CCCCCCCCCCCCCCCCC(=O)O)C(=O)O)C(=O)O)C(C)C)[C@@H](C)CC` [Compound 244] (Ac-Y[Aib]EGTFISDYSIALDRIHQQNFVNWLLAQK([AEEA-AEEA-γGlu-C18 diacid])-OH; C-terminus assumed), the solubility (pH 7.4, aqueous buffer) was at least 9.4 mg/mL.

As a reminder, the solubility is how much of the substance goes into solution per volume. A high value points to much dissolved substance.

These data come from patent US20230143604A1, “QW DOSING OF GIP RECEPTOR AGONIST PEPTIDE COMPOUNDS AND USES THEREOF” (TAKEDA PHARMACEUTICAL COMPANY LIMITED, priority 2020, published 2023).
